Values quoted from earlier work in US20250161269A1 (Celmatix Inc., priority 2022, published 2025).
Like-named read-outs stand apart in the source and are kept apart here.

Columns and labels:
5-HT2B receptor = 5-HT2B receptor (Homo sapiens, UniProt P41595); details: antagonist; cited from earlier work
endometriosis patients = details: cited from earlier work
[1] = system: macrophages (RAW264.7 or primary cells); details: macrophages treated with LPS; cited from earlier work
PCOS patients = PCOS patients or patients with metabolic disturbances; cited from earlier work
endometriosis lesion = details: animals; cited from earlier work
[2] = in vivo; cited from earlier work
PCOS animal models = details: cited from earlier work
serum albumin = serum albumin (Homo sapiens, UniProt P02768); details: peripheral circulation; cited from earlier work
Chain of serum albumin (P02768 25-609): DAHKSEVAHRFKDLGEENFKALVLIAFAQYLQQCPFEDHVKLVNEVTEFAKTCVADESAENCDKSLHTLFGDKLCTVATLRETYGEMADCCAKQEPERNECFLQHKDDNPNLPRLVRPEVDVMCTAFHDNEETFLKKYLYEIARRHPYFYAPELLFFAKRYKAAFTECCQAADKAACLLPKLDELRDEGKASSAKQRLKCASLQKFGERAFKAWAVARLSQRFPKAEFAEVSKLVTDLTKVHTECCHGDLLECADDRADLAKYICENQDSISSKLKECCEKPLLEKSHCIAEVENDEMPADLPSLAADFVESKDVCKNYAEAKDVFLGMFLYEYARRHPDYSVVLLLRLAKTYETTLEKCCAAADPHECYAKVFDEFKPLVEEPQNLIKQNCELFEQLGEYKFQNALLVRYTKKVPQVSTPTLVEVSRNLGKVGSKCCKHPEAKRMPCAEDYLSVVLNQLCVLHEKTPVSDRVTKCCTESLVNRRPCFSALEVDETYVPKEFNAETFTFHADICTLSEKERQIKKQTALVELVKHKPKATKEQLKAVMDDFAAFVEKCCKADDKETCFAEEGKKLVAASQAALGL

[3] = system: chemotherapy tissue damage animal models; details: cited from earlier work
MT1 [4] = target: T1, MT1 (Homo sapiens, UniProt P48039); details: cited from earlier work
T1 sequence (P48039 whole entry): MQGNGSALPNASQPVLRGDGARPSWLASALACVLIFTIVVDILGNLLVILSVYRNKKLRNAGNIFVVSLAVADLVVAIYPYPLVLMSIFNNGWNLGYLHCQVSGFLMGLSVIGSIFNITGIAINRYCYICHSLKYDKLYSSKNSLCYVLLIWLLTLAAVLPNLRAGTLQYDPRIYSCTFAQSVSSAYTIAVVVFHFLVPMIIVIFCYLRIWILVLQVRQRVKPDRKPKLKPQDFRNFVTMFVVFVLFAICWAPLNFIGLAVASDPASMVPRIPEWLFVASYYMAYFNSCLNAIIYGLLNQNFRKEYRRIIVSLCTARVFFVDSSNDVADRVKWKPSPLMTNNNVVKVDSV

MT2 [5] = target: T2, MT2 (Homo sapiens, UniProt P49286); details: cited from earlier work
T2 sequence (P49286 1-362): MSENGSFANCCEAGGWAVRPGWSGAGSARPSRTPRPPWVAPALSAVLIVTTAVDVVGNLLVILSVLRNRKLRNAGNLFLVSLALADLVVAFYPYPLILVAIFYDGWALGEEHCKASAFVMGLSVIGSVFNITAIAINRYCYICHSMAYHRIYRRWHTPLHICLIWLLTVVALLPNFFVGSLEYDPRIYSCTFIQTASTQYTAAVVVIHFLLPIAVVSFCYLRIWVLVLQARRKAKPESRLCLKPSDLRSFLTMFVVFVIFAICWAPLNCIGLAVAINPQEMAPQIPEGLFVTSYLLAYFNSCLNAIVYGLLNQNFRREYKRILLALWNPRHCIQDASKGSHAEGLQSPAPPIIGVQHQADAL

MT1 [6] = target: T1, MT1; design: host or cells: CHO-K1 cells (as the earlier reading words it); details: CHO-K1 cells; cited from earlier work
MT2 [7] = target: T2, MT2; design: host or cells: CHO-K1 cells (as the earlier reading words it); details: CHO-K1 cells; cited from earlier work
MT1 [8] = target: T1, MT1; details: NIH-3T3 cells; cited from earlier work

Chain of 5-HT2B receptor (P41595 whole entry): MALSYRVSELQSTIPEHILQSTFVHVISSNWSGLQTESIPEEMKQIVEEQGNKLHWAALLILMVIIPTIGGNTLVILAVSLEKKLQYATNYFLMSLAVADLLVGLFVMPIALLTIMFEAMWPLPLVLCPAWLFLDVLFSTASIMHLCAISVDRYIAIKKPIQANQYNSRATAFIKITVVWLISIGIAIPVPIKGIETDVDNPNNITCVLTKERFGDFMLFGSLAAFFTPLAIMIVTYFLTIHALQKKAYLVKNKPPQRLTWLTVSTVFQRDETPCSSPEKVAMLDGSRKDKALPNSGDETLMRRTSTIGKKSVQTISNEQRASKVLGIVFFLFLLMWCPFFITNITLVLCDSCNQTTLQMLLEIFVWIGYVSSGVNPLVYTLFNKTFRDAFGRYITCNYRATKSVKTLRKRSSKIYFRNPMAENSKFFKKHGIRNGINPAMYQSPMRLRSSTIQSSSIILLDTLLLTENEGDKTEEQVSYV

| Structure (SMILES) | Ki (MT1 [4]) [pM] | Ki (MT2 [5]) [pM] | Ki (MT1 [6]) [pM] | Ki (MT2 [7]) [pM] | other results |
| --- | --- | --- | --- | --- | --- |
| COc1ccc2cccc(CCNC(C)=O)c2c1 [Agomelatine] | – | – | – | – | Ki (5-HT2B receptor): 660000 pM |
| COc1ccc2[nH]cc(CCNC(C)=O)c2c1 [Melatonin, N-acetyl-5-methoxytryptamine] | – | – | – | – | effect on pelvic pain (endometriosis patients): beneficial effect; LPS-induced expression of pro-inflammatory molecules (e.g. TNFα, IL1B, IL6, IL8) [1]: reduces their LPS-induced expression; effect on hyperandrogenism, inflammation, ART outcome, and metabolic function (PCOS patients): beneficial effect; endometriosis lesion regression (endometriosis lesion): promotes endometriosis lesion regression; half-life inside the body [2]: 20 to 40 min; metabolic and reproductive traits (PCOS animal models): improve metabolic and reproductive traits; bound to serum albumin (serum albumin): approximately 70%; metabolic and reproductive traits [3]: mitigate and protect metabolic and reproductive traits |
| COc1ccc2[nH]cc(CCNC(=O)c3cc(=O)cco3)c2c1 [Piromelatine] | 22 | 34 | – | – | – |
| CCC(=O)NCC[C@@H]1CCc2ccc3c(c21)CCO3 [Ramelteon] | – | 110 | 118 | 115 | – |
| COc1cc2c(C(C)CNC(C)=O)c[nH]c2cc1Cl (stereo not drawn) [TIK-301, beta-methyl-6-chloromelatonin] | 81 | 42 | – | – | – |
| CCC(=O)NC[C@@H]1C[C@H]1c1cccc2c1CCO2 [Tasimelteon] | 300 | – | 350 | 170 | Ki (MT1 [8]): 304 pM |
